Drawing on paper PMC6720883, “In Vitro Inhibitory Effects of APINACA on Human Major Cytochrome P450, UDP-Glucuronosyltransferase Enzymes, and Drug Transporters” (Molecules, 2019), this text covers IC50 and Ki for 1 molecule.

Like-named read-outs stand apart in the source and are kept apart here.

One assay concerns the target UGT1A4 (Homo sapiens, UniProt P22310). Briefly: Inhibition of UGT1A4-catalyzed trifluoperazine N-glucuronidation in human liver microsomes. On the procedure: The inhibitory effect of APINACA and typical UGT inhibitors on UGT1A1, UGT1A3, UGT1A4, UGT1A6, UGT1A9, and UGT2B7 were evaluated following our previous method by LC–MS/MS after incubation of ultrapooled human liver microsomes with a cocktail of UGT substrates. […] The reactions were initiated by adding UDPGA, and the incubation continued for 60 min at 37 °C in a shaking water bath. The reactions were terminated by adding 50 μL of ice-cold acetonitrile containing internal standards (propofol glucuronide for chenodeoxycholic acid 24-acyl-β-glucuronide and mycophenolic acid glucuronide; and meloxicam for SN-38 glucuronide, trifluoperazine glucuronide, N-acetylserotonin β-D-glucuronide, and naloxone 3-β-D-glucuronide). The incubation mixtures were centrifuged at 13,000× g for 8 min at 4 °C. Next, 50 μL of each supernatant of A and B set was mixed, and aliquots (5 μL) were analyzed by LC–MS/MS. All assays were performed in triplicate, and the average values were used in calculations.
To measure the time-dependent inhibition, human liver microsomes were preincubated with the various concentrations of APINACA (final concentrations of 0.1–100 μM) and UDPGA for 30 min at 37 °C. Next, the reaction mixtures were incubated with UGT probe substrate cocktail sets for 60 min at 37 °C. The control reaction was performed by adding methanol instead of the test compounds.
1.1 (Systat Software, Inc.).
Background: Liver microsomes are vesicles of endoplasmic reticulum, rich in cytochrome P450 enzymes.

Another assay has as its target CYP2D6 (Homo sapiens, UniProt P10635). Briefly: Inhibition of CYP2D6-mediated bufuralol 1′-hydroxylase in ultrapooled human liver microsomes. The format is in vitro ADME. The method, then: The inhibitory potentials (IC50 values) of APINACA and typical CYP inhibitors on CYP 1A2, 2A6, 2C8, 2C9, 2C19, 2D6, and 3A4 activities in pooled human liver microsomes were evaluated following our previous method using a cocktail of CYP substrates, followed by LC–MS/MS [43]. […] After 3 min of preincubation at 37 °C, the reaction mixtures were incubated for 15 min at 37 °C with the addition of NADPH in a shaking water bath. The reaction was stopped by adding 100 μL of ice cold methanol containing internal standards (d9-1′-hydroxybufuralol for 1′-hydroxybufuralol, 4′-hydroxydiclofenac, 7-hydroxycoumarin, 1′-hydroxymidazolam, and 4′-hydroxymephenytoin; ^13C2, ^15N-acetaminophen for acetaminophen and N-desethylamodiaquine). The incubation mixtures were centrifuged at 13,000× g for 8 min at 4 °C, and 50 μL of each supernatant was diluted with 50 μL of water. Aliquots (5 μL) of the diluted supernatants were analyzed by LC–MS/MS. All assays were performed in triplicate, and the average values were used for subsequent calculations.
To measure the time-dependent inhibition, human liver microsomes were preincubated with the various concentrations of APINACA (final concentrations of 0.1−100 μM) and NADPH for 30 min at 37 °C. Next, the reaction mixtures were incubated with a seven-CYP probe substrate cocktail or bupropion for 15 min at 37 °C. […]

A further assay deals with OAT1 (Homo sapiens, UniProt Q4U2R8). Kind of assay: Uptake of [3-H]para-aminohippuric acid in HEK293-OAT1 cells.
Chain of OAT1 (Q4U2R8 whole entry): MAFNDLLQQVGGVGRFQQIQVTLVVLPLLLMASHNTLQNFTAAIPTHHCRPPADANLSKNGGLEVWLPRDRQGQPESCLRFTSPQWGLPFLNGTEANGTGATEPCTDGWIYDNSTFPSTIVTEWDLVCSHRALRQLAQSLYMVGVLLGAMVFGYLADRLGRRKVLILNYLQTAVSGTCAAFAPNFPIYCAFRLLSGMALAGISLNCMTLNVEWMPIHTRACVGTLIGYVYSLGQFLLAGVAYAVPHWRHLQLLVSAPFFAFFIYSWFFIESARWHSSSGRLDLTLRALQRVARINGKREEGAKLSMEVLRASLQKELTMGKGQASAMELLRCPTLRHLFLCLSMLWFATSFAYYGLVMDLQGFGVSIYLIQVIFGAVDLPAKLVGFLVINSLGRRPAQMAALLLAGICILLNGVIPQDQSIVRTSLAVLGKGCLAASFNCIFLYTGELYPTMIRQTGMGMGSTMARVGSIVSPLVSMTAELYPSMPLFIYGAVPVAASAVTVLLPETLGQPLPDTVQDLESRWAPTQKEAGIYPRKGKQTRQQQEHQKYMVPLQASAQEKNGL
Assay [1] deals with human dopamine transporter. Set-up: method as in PMID 28824464. The settings on record: human dopamine transporter overexpressed system; read-out: Ki for inhibition of dopamine uptake; cited from earlier work.

Chain of CYP2D6 (P10635 whole entry): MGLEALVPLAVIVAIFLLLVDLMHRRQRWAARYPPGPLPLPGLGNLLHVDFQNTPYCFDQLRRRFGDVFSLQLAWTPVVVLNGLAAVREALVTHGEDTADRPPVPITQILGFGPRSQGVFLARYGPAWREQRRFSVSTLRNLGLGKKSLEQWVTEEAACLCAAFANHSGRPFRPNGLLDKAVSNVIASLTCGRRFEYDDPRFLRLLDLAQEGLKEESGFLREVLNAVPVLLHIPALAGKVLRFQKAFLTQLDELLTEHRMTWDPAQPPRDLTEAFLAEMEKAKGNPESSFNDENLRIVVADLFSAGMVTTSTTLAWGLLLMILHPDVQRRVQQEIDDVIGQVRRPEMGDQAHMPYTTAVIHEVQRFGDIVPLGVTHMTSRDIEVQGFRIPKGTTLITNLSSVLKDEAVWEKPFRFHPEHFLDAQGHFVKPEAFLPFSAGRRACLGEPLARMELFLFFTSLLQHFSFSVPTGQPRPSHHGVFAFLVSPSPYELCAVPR
Chain of UGT1A4 (P22310 29-534): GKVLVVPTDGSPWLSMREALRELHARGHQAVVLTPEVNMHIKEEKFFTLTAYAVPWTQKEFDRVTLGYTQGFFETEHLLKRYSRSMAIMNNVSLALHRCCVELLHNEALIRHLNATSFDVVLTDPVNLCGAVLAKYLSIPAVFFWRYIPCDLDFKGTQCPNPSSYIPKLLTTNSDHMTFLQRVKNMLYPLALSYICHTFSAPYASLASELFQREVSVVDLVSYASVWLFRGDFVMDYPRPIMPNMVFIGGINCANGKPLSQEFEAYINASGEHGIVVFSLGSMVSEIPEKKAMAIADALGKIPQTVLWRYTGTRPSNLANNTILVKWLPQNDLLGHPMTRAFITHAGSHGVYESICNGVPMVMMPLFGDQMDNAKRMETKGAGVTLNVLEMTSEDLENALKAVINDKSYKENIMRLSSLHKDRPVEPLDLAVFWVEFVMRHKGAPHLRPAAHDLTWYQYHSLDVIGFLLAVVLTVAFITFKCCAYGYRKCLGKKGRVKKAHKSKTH

Regarding `CCCCCn1nc(C(=O)NC23CC4CC(CC(C4)C2)C3)c2ccccc21` [APINACA, N-(1-adamantyl)-1-pentyl-1H-indazole-3-carboxamide], the IC50 (in general, the midpoint of a concentration-inhibition curve) was greater than 100 µM against UGT1A4; greater than 100 µM at UGT1A4 (read-out: IC50 UGT1A4 trifluoperazine N-glucuronidation, with 30-min preincubation, pooled human liver microsomes, 30-min preincubation with UDPGA (○)); greater than 100 µM at CYP2D6; greater than 100 µM on CYP2D6 (read-out: IC50 (μM) With Preincubation, CYP2D6 bufuralol 1′-hydroxylase, ultrapooled human liver microsomes, 30-min preincubation with NADPH); greater than 250 µM against OAT1. Further, the Ki (commonly a measure of affinity in units of concentration, obtained from inhibition or displacement) in assay [1] was 4.6 µM.
